From article PMC5860131, “Identification of natural products as novel ligands for the human 5-HT2C receptor” (Biophysics Reports, 2018)
pEC50: −log10 of the molar value.

Tests used:
5-HT2C receptor [1] = target: T1, 5-HT2C receptor (Homo sapiens, UniProt P28335, DEL255-298/G251D/H250E/H252N/INS299[…]/L248D/M247A/M300L/T253W); format: binding; conditions: CPM assay, comparing to apo-protein
T1 construct: the N- and C-terminals were truncated by 39 and 65 residues, respectively; FLAG (N); PreScission protease site + 10× His (C); made in house; host or cells: Spodoptera frugiperda (Sf9), baculovirus

5-HT2A receptor = target: T2, 5-HT2A receptor (Homo sapiens, UniProt P28223); assay: Ca2+ mobilization assay (Fluo-4, FLIPR), HEK 293T cells stably transfected with 5-HT2A; format: cell-based; conditions: agonist mode, up to 30,000 nmol/L
T2 construct: expressed in transfected cells; host or cells: HEK 293T, stably transfected
Excerpt: (§1) The 5-HT2C receptor mainly couples to Gαq proteins. The activated 5-HT2C receptor transmits the signals from the extracellular to the intercellular side using DAG/IP3 (diacyl glycerol/inositol 1,4,5-trisphosphate) as its second massagers (Hannon and Hoyer [2008]). IP3 stimulates the endoplasmic reticulum to release calcium ions into the cytoplasm, which causes the increase of calcium concentration in cytosol. Therefore, calcium mobilization assay is commonly applied to understand how unknown small molecule ligands of 5-HT2C receptor modulate cellular signal transductions. In this case, Fluo-4 Direct dye was used as a fluorescence indicator to detect calcium flux in G protein-coupled receptor expressed cells. The fold of maximum response over average of basal reading is plotted against compound concentration to determine the potency of the compounds (Fig. 3). […]. […] After the dye loaded, cells were placed in a FLIPR^TETRA fluorescence imaging plate reader (Molecular Devices); drug dilutions, prepared at 3× final concentration in FLIPR buffer and aliquotted into 384-well plates, were also added to the FLIPR^TETRA. The fluidics module and plate reader of the FLIPR^TETRA were programmed to read baseline fluorescence for 10 s (1 read/s), then to add 10 μl of drug/well and to read for 6 min (1 read/s). […]

5-HT2C receptor [2] = target: T3, 5-HT2C receptor (Homo sapiens, UniProt P28335); assay: Ca2+ mobilization assay (Fluo-4, FLIPR), HEK 293T cells stably transfected with 5-HT2C; format: cell-based
T3 construct: expressed in transfected cells; host or cells: HEK 293T, stably transfected
T3 sequence (P28335 33-458): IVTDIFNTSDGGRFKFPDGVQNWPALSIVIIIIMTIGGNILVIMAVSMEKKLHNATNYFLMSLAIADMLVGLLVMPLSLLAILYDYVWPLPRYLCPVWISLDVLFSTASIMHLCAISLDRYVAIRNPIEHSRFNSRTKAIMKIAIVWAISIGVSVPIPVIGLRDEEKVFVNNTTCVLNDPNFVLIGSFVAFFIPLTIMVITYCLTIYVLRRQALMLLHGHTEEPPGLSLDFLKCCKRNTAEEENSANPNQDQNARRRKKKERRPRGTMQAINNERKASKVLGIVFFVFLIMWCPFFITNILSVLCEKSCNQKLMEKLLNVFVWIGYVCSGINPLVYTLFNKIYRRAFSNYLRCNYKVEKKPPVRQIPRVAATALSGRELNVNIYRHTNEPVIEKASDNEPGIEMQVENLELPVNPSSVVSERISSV
Excerpt: The 5-HT2C receptor mainly couples to Gαq proteins. The activated 5-HT2C receptor transmits the signals from the extracellular to the intercellular side using DAG/IP3 (diacyl glycerol/inositol 1,4,5-trisphosphate) as its second massagers (Hannon and Hoyer [2008]). IP3 stimulates the endoplasmic reticulum to release calcium ions into the cytoplasm, which causes the increase of calcium concentration in cytosol. Therefore, calcium mobilization assay is commonly applied to understand how unknown small molecule ligands of 5-HT2C receptor modulate cellular signal transductions. In this case, Fluo-4 Direct dye was used as a fluorescence indicator to detect calcium flux in G protein-coupled receptor expressed cells. The fold of maximum response over average of basal reading is plotted against compound concentration to determine the potency of the compounds (Fig. 3). […]. HEK 293T cells stably transfected with 5-HT2A/2B/2C receptor were seeded in 384-well plates at a density of 15,000 cells/well in DMEM containing 1% dialyzed FBS 8 h before the calcium flux assay. After removing medium, cells were then incubated (20 μl/well) for 1 h at 37 °C with Fluo-4 Direct dye (Invitrogen) reconstituted in FLIPR buffer (1× HBSS, 2.5 mmol/L probenecid, and 20 mmol/L HEPES, pH 7.4). After the dye loaded, cells were placed in a FLIPR^TETRA fluorescence imaging plate reader (Molecular Devices); drug dilutions, prepared at 3× final concentration in FLIPR buffer and aliquotted into 384-well plates, were also added to the FLIPR^TETRA. The fluidics module and plate reader of the FLIPR^TETRA were programmed to read baseline fluorescence for 10 s (1 read/s), then to add 10 μl of drug/well and to read for 6 min (1 read/s). Fluorescence in each well was normalized to the average of the first 10 reads (i.e., baseline fluorescence). Then, the maximum-fold increase, which occurred within 60 s after drug addition, over baseline fluorescence elicited by vehicle or drug was determined. […]

5-HT2B receptor = target: T4, 5-HT2B receptor (Homo sapiens, UniProt P41595); assay: Ca2+ mobilization assay (Fluo-4, FLIPR), HEK 293T cells stably transfected with 5-HT2B; format: cell-based; conditions: agonist mode, up to 30,000 nmol/L
T4 construct: expressed in transfected cells; host or cells: HEK 293T, stably transfected
Excerpt: as §1

[3] = tested on: cortical pyramidal neurons; assay: Whole-cell patch clamp recording of spontaneous synaptic current (SPSC) in brain slices; format: cell-based; conditions: 10 μmol/L; mouse brain slices
Method: 5-HT receptors play important roles in central and peripheral nervous systems. Malfunctions of these receptors have been linked to many neural disorders such as depression and psychosis. The effect of (–)-crebanine on changes in 5-HT induced synaptic transmission was evaluated by electrophysiological recording of mouse brain slices (Jang et al. [2012]). The spontaneous synaptic current (SPSC) of cortical pyramidal neurons was recorded in whole cell mode.
Cortical slices from ICR mouse of both genders (15–21 days) were prepared for electrophysiological recording. In brief, the animals were decapitated and brains were placed in cold sucrose artificial cerebrospinal fluid (sucrose-ASCF, in mmol/L: sucrose 213, KCl 2.5, NaH2PO4 1.25, NaHCO3 26, D-glucose 10, MgSO4 2, CaCl2 2, pH 7.4, 0–4 °C, saturated with 95% O2 and 5% CO2). The brains were cut into 280 or 300 μm slices with a vibratome (Leica VT1200S, Germany); slices were then incubated with ACSF (in mmol/L: NaCl 126, KCl 2.5, NaH2PO4 1.25, NaHCO3 26, D-glucose 25, MgSO4 2, CaCl2 2, pH 7.4, saturated with 95% O2 and 5% CO2) at room temperature for 1 h.
A whole-cell patch clamp technique was used. […] Activity of cortical pyramidal neurons was recorded using an amplifier (HEKA EPC 10 USB, Germany) in the voltage clamp mode. […]

5-HT2C receptor [4] = target: T1, 5-HT2C receptor; format: binding

T1 sequence (P28335 with tags, fused parts or gaps with the stated changes limits assumed): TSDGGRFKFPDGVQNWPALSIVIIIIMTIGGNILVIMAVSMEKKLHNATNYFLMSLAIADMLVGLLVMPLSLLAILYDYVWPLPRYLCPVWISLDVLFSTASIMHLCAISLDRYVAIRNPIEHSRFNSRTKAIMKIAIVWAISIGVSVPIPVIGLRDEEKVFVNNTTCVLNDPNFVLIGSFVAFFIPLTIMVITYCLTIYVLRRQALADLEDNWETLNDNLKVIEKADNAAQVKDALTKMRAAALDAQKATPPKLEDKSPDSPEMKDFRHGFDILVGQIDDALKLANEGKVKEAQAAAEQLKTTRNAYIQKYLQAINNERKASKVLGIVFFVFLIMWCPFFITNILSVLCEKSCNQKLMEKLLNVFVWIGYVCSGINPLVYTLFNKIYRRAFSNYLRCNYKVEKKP
T2 sequence (P28223 whole entry): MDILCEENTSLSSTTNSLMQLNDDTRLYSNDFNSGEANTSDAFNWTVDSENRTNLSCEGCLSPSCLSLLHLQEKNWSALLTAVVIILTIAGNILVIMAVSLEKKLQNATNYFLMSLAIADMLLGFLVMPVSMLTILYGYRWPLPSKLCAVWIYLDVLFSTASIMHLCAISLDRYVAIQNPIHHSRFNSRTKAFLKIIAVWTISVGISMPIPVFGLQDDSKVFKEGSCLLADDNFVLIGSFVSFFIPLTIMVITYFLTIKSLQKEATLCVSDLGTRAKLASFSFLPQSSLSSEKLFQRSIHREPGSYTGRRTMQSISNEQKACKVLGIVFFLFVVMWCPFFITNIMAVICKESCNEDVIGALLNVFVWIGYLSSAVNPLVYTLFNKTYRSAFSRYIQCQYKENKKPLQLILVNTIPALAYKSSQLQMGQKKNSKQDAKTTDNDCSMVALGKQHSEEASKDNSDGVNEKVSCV
T4 sequence (P41595 whole entry): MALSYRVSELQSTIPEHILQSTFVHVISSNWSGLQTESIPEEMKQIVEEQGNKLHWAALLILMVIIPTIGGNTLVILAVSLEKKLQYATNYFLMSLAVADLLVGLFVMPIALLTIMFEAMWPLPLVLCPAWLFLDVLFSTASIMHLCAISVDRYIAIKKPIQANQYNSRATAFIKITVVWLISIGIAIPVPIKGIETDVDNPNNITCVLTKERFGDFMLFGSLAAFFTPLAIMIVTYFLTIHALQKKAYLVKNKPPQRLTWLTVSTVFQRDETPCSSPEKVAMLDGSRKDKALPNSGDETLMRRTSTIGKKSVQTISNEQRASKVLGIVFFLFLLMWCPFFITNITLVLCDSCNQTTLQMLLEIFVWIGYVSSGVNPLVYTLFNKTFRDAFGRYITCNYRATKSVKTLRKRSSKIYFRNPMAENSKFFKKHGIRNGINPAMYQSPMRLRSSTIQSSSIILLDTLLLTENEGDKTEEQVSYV

Which “thermal shift value (∆Tm)” value (5-HT2C receptor [1]) does the source give for `COc1cc2c(cc1OC)-c1c3c(cc4c1[C@@H](C2)N(C)CC4)OCO3` [Compound 2, (–)-dicentrine] here?
Its value is < 1.00 °C.

Which “thermal shift value (∆Tm)” value (5-HT2C receptor [1]) does the source give for `COc1ccc2c(c1O)-c1c(O)c(OC)cc3c1[C@H](C2)[N+](C)(C)CC3` [Compound 3, (+)-magnoflorine] here?
Its value is < 1.00 °C.

`COc1cc2cc3c4c(cc(OC)c(OC)c4c2cc1OC)CCN3C` [Compound 4, didehydroglaucine] was tested. Which “thermal shift value (∆Tm)” value (5-HT2C receptor [1]) did it give?
Its value is < 1.00 °C.

What does the source list for `COc1ccc2c(c1O)-c1c(OC)c(OC)cc3c1[C@H](C2)N(C)CC3` [Compound 5, (+)-isocorydine]?
receptor activation (5-HT2A receptor): inactive; pEC50 (5-HT2C receptor [2]): 5.68; Emax (5-HT2C receptor [2]; HEK-293T): 16.6%; receptor activation (5-HT2B receptor): inactive

Which “effect on SPSC” value [3] does the source give for `NCCc1c[nH]c2ccc(O)cc12` [Compound 5-HT, 5-hydroxytryptamine, reference compound] here?
The value was “amplified”.

What does the source list for `Cc1nc2sccn2c(=O)c1CCN1CCC(=C(c2ccc(F)cc2)c2ccc(F)cc2)CC1` [Ritanserin, ritanserin, reference compound]?
S/C (5-HT2C receptor [4]): 8.39 ± 1.80; affinity (in words) (5-HT2C receptor [4]): high nmol/L range
